In US20200085047A1, “Use of an Acyclic Picolinamide Compound as a Fungicide for Control of Phytopathogenic Fungi in Vegetables” (Dow AgroSciences LLC, priority 2017, published 2020):

Experiments:
Format in all cases: in vivo
Alternaria brassicicola = assay: Field assessment of Alternaria brassicicola (ALTEBI) on cabbage, 2 day protectant; conditions: 5% EC + Trycol
Excerpt: Field assessment of Alternaria brassicicola (ALTEBI) on cabbage:
A fungicidal treatment containing Compound I, applied in a 5% EC formulation and tank mixed with an adjuvant (Trycol, 50% w/w at 0.2% v/v), was sprayed three times on head cabbage plants (BRSOL) with the first application at 10-12 LF stage of cabbage. The following applications were done at 7 day intervals will all applications being sprayed at rates of 50, 100, and 150 grams of active ingredient per hectare (g ai/ha). The experimental plots were inoculated with black leaf spot pathogen 2 days after the first application. The treatment was part of an experimental trial designed as a randomized complete block with four replications and a plot of approximately 2×1 m, with compound I being applied at water volume of 800 L/ha.
Disease severity was assessed as the percent diseased area of cabbage bottom foliage (6 plants per plot randomly). Visual infection was assessed three times during the trial at 7 days after each application. Area under the disease progress curve (AUDPC) was calculated for each plot using the sets of recorded severity data. Relative AUDPC (% control based on AUDPC) was calculated as percent of the nontreated control.

Erysiphe cichoracearum [1] = assay: Field assessment of Erysiphe cichoracearum (ERYSCI) on cucumber, 2 day protectant; conditions: 5% EC + Trycol
Experimental: (§1) Field Assessment of Erysiphe Cichoracearum (ERYSCI) on Cucumber:
Assessment of compound I of ERYSCI on cucumbers, in both protectant and curative fashion, was performed in two separate field trials. For the two day protectant test (2DP), a fungicidal treatment containing a 5% EC formulation of compound I plus an adjuvant (Trycol, 50% w/w at 0.2% v/v), was sprayed on cucumber plants (CUMSA) twice, the first application at the fruiting stage 41 days after planting, with the following application after 7 days. Formulations of compound I were applied at rates of 50, 100, and 150 grams of active ingredient per hectare (g ai/ha). The experimental plots were inoculated with the powdery mildew pathogen 2 days after the first application. The treatment was part of an experimental trial designed as a randomized complete block with four replications and a plot of approximately 2×1 m, with formulations of compound I being applied at water volume of 1200 L/ha based on seedling sizes.
(§2) Disease severity was assessed as percent diseased area of cucumber foliage per plant (6 plants per plot randomly). Cucumber powdery mildew infection was assessed three times, 7 days after application A (DAAA), and 7 and 14 DAAB. Area under the disease progress curve (AUDPC) was calculated for each plot using the sets of recorded visual infection data. Relative AUDPC (% control based on AUDPC) was calculated as percent of the nontreated control.

Erysiphe cichoracearum [2] = assay: Field assessment of Erysiphe cichoracearum (ERYSCI) on cucumber, 2 day curative; conditions: 5% EC + Trycol
Excerpt: as §1
In the curative trial, a fungicidal treatment containing a 5% EC formulation of compound I plus an adjuvant (Trycol, 50% w/w at 0.2% v/v), was sprayed on cucumber plants (CUMSA) twice, the first application at the fruiting stage 29 days after planting, with the second application after 7 days. Formulations of compound I were applied at rates of 50, 100 and 150 grams of active ingredient per hectare (g ai/ha). The experimental plots were inoculated with the powdery mildew pathogen 2 days before the first application (curative). The treatment was part of an experimental trial designed as a randomized complete block with four replications and a plot of approximately 2×1 m, with formulations of compound I being applied at water volume of 1200 L/ha based on seedling sizes.
as §2, with “randomly). Powdery” for “randomly). Cucumber powdery”, “mildew disease severity” for “mildew infection”, “assessed four” for “assessed three”, “(DAAA), plus 7, 14” for “(DAAA),”, “and 21” for “and 7 and 14”

Alternaria solani = assay: Field assessment of Alternaria solani (ALTESO) on tomato, trial 1 (inoculated); conditions: for Percent disease control on tomato fruits (AUDPC), Trial 1, 5% EC: 5% EC + Agnique BP420, fruits; for Percent disease control on tomato leaves (AUDPC), Trial 1, 5% EC: 5% EC + Agnique BP420, leaves; for Percent disease control on tomato fruits (AUDPC), Trial 1, 10% SC: 10% SC + Agnique BP420, fruits; for Percent disease control on tomato leaves (AUDPC), Trial 1, 10% SC: 10% SC + Agnique BP420, leaves
Experimental: Field Assessment of Alternaria solani (ALTESO) on Tomato:
Assessment of compound I of ALTESO on tomato was performed in two separate field trials. In the first trial, a fungicidal treatment containing Compound I, applied in both a 5% EC and 10% SC formulation and tank mixed with an adjuvant (Agnique BP420, 50% w/w at 0.3% v/v), was sprayed on tomato plants (LYPES) at approximately 60-70 cm in height at rates of 100 and 200 grams of active ingredient per hectare (g ai/ha). The trial was based on five foliar applications at 7 day intervals with inoculation with the early blight pathogen 2 days after the first application. The treatment was part of an experimental trial designed as a randomized complete block with four replications and a plot of approximately 1.5×4 m. Compound I was applied at water volume of 1000 L/ha with an AZO backpack sprayer using compressed air.
Disease severity was recorded as percent diseased area on a random selection of 20 leaves and 20 fruits per plot. Percent control was assessed with 6 evaluations made between 0-35 days after the first application, DAA1. Area under the disease progress curve (AUDPC) was calculated for each plot using the sets of recorded severity data. Relative AUDPC (% control based on AUDPC) was calculated as percent of the nontreated control.

Colletotrichum coccodes = assay: Field assessment of Colletotrichum coccodes (COLLCA) in tomato; conditions: SC
Excerpt: Field Assessment of Colletotrichum Coccodes (COLLCA) in Tomato:
A fungicidal treatment containing Compound I, applied in an SC formulation (MSO built-in) and tank mixed with an adjuvant (Agnique BP-420, 50% w/w at 0.2% v/v or Adsee C80W 80%), was sprayed on tomato plants (LYPES, Roma VS Saladette type variety) at growth stage 12 in vegetative growth at rates of 50, 75, 100, and 150 grams of active ingredient per hectare (g ai/ha). The experimental plots were run with natural infestation of the anthracnose pathogen and supplemented with additional inoculum about one day after the 1st application. The treatment was part of an experimental trial designed as a randomized complete block (RCB) with four replications and a plot of approximately 6.67×30 ft. Compound I was applied at water volume of 40 gal/acre, using a backpack sprayer (carbon dioxide (CO2), 8004VS FF nozzles) and pressurized at 38 psi.
Percent leaf severity was assessed three times during the trial (0-23 days after application 1). Area under the disease progress curve (AUDPC) was calculated for each plot using the recorded leaf severity data. Relative AUDPC (% control based on AUDPC) was calculated as percent of the untreated control.

Structure (SMILES): COc1ccnc(C(=O)N[C@@H](C)C(=O)O[C@@H](C)C(c2ccc(F)cc2)c2ccc(F)cc2)c1OC(C)=O [Compound I, (S)-1,1-bis(4-fluorophenyl)propan-2-yl (3-acetoxy-4-methoxypicolinoyl)-L-alaninate]
- Percent control based on AUDPC, ALTEBI 2 DP (Alternaria brassicicola; 50 g ai/ha): C (26-50)
- Percent control based on AUDPC, ALTEBI 2 DP (Alternaria brassicicola; 100 g ai/ha): B (51-75)
- Percent control based on AUDPC, ALTEBI 2 DP (Alternaria brassicicola; 150 g ai/ha): B (51-75)
- Percent control based on AUDPC, ERYSCI 2 DP (Erysiphe cichoracearum [1]; 50 g ai/ha): A (76-100)
- Percent control based on AUDPC, ERYSCI 2 DP (Erysiphe cichoracearum [1]; 100 g ai/ha): A (76-100)
- Percent control based on AUDPC, ERYSCI 2 DP (Erysiphe cichoracearum [1]; 150 g ai/ha): A (76-100)
- Percent control based on AUDPC, ERYSCI 2 DC (Erysiphe cichoracearum [2]; 50 g ai/ha): A (76-100)
- Percent control based on AUDPC, ERYSCI 2 DC (Erysiphe cichoracearum [2]; 100 g ai/ha): B (51-75)
- Percent control based on AUDPC, ERYSCI 2 DC (Erysiphe cichoracearum [2]; 150 g ai/ha): C (26-50)
- Percent disease control on tomato fruits (AUDPC), Trial 1, 5% EC (Alternaria solani; 100 g ai/ha): A (76-100)
- Percent disease control on tomato leaves (AUDPC), Trial 1, 5% EC (Alternaria solani; 100 g ai/ha): A (76-100)
- Percent disease control on tomato fruits (AUDPC), Trial 1, 10% SC (Alternaria solani; 100 g ai/ha): A (76-100)
- Percent disease control on tomato leaves (AUDPC), Trial 1, 10% SC (Alternaria solani; 100 g ai/ha): A (76-100)
- Percent disease control on tomato fruits (AUDPC), Trial 1, 5% EC (Alternaria solani; 200 g ai/ha): A (76-100)
- Percent disease control on tomato leaves (AUDPC), Trial 1, 5% EC (Alternaria solani; 200 g ai/ha): A (76-100)
- Percent disease control on tomato fruits (AUDPC), Trial 1, 10% SC (Alternaria solani; 200 g ai/ha): A (76-100)
- Percent disease control on tomato leaves (AUDPC), Trial 1, 10% SC (Alternaria solani; 200 g ai/ha): A (76-100)
- Percent Control of COLLCA (AUDPC) (Colletotrichum coccodes; Compound I 50 g/ha, Agnique BP420, 200 mL/ha): 67%
- Percent Control of COLLCA (AUDPC) (Colletotrichum coccodes; Compound I 50 g/ha, MSO, 100 g/ha): 46.0%
- Percent Control of COLLCA (AUDPC) (Colletotrichum coccodes; Compound I 75 g/ha, Agnique BP420, 2300 mL/ha): 91.1%
- Percent Control of COLLCA (AUDPC) (Colletotrichum coccodes; Compound I 75 g/ha, MSO, 150 g/ha): 75.5%
- Percent Control of COLLCA (AUDPC) (Colletotrichum coccodes; Compound I 100 g/ha, Adsee C80W 80%, 250 g/ha): 57.3%
- Percent Control of COLLCA (AUDPC) (Colletotrichum coccodes; Compound I 100 g/ha, Agnique BP420, 400 mL/ha): 91.0%
- Percent Control of COLLCA (AUDPC) (Colletotrichum coccodes; Compound I 100 g/ha, MSO, 200 g/ha): 92.6%
- Percent Control of COLLCA (AUDPC) (Colletotrichum coccodes; Compound I 150 g/ha, Agnique BP420, 600 mL/ha): 95.7%
- Percent Control of COLLCA (AUDPC) (Colletotrichum coccodes; Compound I 150 g/ha, MSO, 300 g/ha): 95.3%
